According to patent US20240293579A1, “Composition Comprising Trim31 and Rhbdf2 for Treatment of NAFLD/NASH” (CHONGQING MEIPULAN TECHNOLOGY CO., LTD, priority 2021, published 2024):

What follows are compounds tested on TRIM31 mRNA (assay: TRIM31 mRNA expression by RT-qPCR in PA/OA-induced L02 cells). Settings: 100 μmol/L compound; PA/OA-induced L02 cells; RT-qPCR.
Format: cell-based, human
Protocol: Palmitic acid/oleic acid (PA/OA) was used to induce the decrease of TRIM31 mRNA expression in human hepatocyte L02 cells. The cells were divided into control group and drug group. The drug group was treated with a concentration of 100 μmol/L compound, and the expression level of TRIM31 mRNA was detected by RT-qPCR. The expression level of TRIM31 mRNA in the drug group divided by that in the control group (Qdrug/Qctrl) was used to evaluate the ability of the compounds to promote TRIM31 expression. […]

| Compound | Qdrug/Qctrl (TRIM31 mRNA expression level, drug group divided by control group) [fold] |
| --- | --- |
| Oc1cc(O)c2c(c1)O[C@H](c1cc(O)c(O)c(O)c1)[C@H](O)C2 [(−)-epigallocatechin] | 2.71 |
| C[C@H](CCC(=O)NCCS(=O)(=O)O)[C@H]1CC[C@H]2[C@@H]3[C@H](O)C[C@@H]4C[C@H](O)CC[C@]4(C)[C@H]3CC[C@]12C [Taurochenodeoxycholic acid] | 2.51 |
| COc1cc2c(cc1O)CC[n+]1cc3c(OC)c(OC)ccc3cc1-2 [Jateorhizine] | 1.72 |
| C[C@H]1CC[C@@H]2N(C1)C[C@H]1[C@@H]3C[C@H]4[C@@H](C[C@H](O)[C@H]5C[C@@H](O)CC[C@@]54C)[C@@H]3CC[C@@H]1[C@]2(C)O [Peimine] | 1.31 |
| O=C1C[C@@H](c2ccc(O)cc2)Oc2cc(O)ccc21 [Liquiritigenin] | 2.79 |
| Anthocyanidin | 3.68 |
| Cynarascoloside C | 2.34 |
| Punicosides | 2.64 |
| O[C@H]1CCN2Cc3ccccc3N=C12 [Peganine] | 1.34 |
| Oc1ccc([C@H]2Oc3cc(O)cc(O)c3C[C@@H]2O)cc1 [Afzelechin] | 3.12 |
| O=C1CCC[C@@H]2[C@H]3CCCN4CCC[C@@H](CN12)[C@@H]34 [Sophocarpidine] | 1.30 |

Same assay, conditions: Homo sapiens, L02, read-out: Qdrug/Qctrl (TRIM31 mRNA expression level, drug group divided by control group)

| Compound | fold induction at 100 µM |
| --- | --- |
| O=C1c2c(O)cc(O)cc2O[C@H](c2ccc(O)c(O)c2)[C@H]1O [Dihydroquercetin] | 3.32 |
| Oc1cc(O)c2cc(O)c(-c3ccc(O)c(O)c3)[o+]c2c1 [Cyanidin] | 2.97 |
| O=c1cc(-c2ccc(O)cc2)oc2cc(O)cc(O)c12 [Apigenin] | 3.21 |
| CC[C@H]1CN2CC[C@]3(C(=O)Nc4ccccc43)[C@@H]2C[C@@H]1/C(=C\OC)C(=O)OC [Rhynchophylline] | 1.92 |
| O=c1cc(-c2ccccc2)oc2cc(O)c(O)c(O)c12 [Baicalein] | 3.53 |
| COc1cc(-c2oc3cc(O)cc(O)c3c(=O)c2O)ccc1O [Isorhamnetin] | 2.77 |
| O=c1c(O)c(-c2ccc(O)cc2)oc2cc(O)cc(O)c12 [Kaempferol] | 3.26 |
| O=C1C[C@@H](c2ccc(O)cc2)Oc2cc(O)cc(O)c21 [Naringenin] | 3.02 |
| O=c1cc(-c2ccccc2)oc2cc(O)cc(O)c12 [Chrysin] | 2.89 |
| O=c1cc(-c2ccc(O)cc2)oc2cc(O)c(O)c(O)c12 [Scutellarein] | 3.2 |
| O=C1CCC(N2C(=O)c3ccccc3C2=O)C(=O)N1 (centres unmarked) [Thalidomide, reference compound] | 1.88 |
| COc1cc2c(cc1OC)[C@@H]1Cc3ccc(OC)c(OC)c3CN1CC2 [Tetrahydropalmatine] | 1.76 |
| COc1ccc2cc3[n+](cc2c1OC)CCc1cc2c(cc1-3)OCO2 [Berberine, reference compound] | 1.32 |
| COC(=O)c1cc(OC)c2c(c1-c1c(C(=O)OC)cc(OC)c3c1OCO3)OCO2 [Bifendate, reference compound] | 1.76 |
| Oc1cc(O)c2c(c1)O[C@H](c1ccc(O)c(O)c1)[C@H](O)C2 [Epicatechin] | 2.92 |
| O=c1c(-c2ccc(O)cc2)coc2cc(O)ccc12 [Daidzein] | 2.66 |
| COc1cc2nccc(Oc3ccc(NC(=O)NC4CC4)c(Cl)c3)c2cc1C(N)=O [Lenvatinib, reference compound] | 2.75 |
| COc1ccc([C@@H]2CC(=O)c3c(O)cc(O)cc3O2)cc1O [Hesperetin] | 3.06 |
| C=C(CO)C(=O)O[C@H]1CC(=C)[C@@H]2C[C@H](O)C(=C)[C@@H]2[C@H]2OC(=O)C(=C)[C@@H]21 [Cynaropicrin] | 3.35 |

Same assay, conditions: Homo sapiens; 100 μmol/L compound; PA/OA-induced L02 cells; RT-qPCR; read-out: Qdrug/Qctrl (TRIM31 mRNA expression level, drug group divided by control group)

| Compound | fold induction at 100 µM |
| --- | --- |
| COc1ccc(-c2oc3c(CC=C(C)C)c(O[C@@H]4O[C@H](CO)[C@@H](O)[C@H](O)[C@H]4O)cc(O)c3c(=O)c2O[C@@H]2O[C@@H](C)[C@H](O)[C@@H](O)[C@H]2O)cc1 [Icariin] | 3.33 |
| O=c1c(-c2ccc(O)cc2)coc2c([C@@H]3O[C@H](CO)[C@@H](O)[C@H](O)[C@H]3O)c(O)ccc12 [Puerarin] | 2.72 |
| C[C@H](CCC(=O)O)[C@H]1CC[C@H]2[C@@H]3[C@@H](O)C[C@@H]4C[C@H](O)CC[C@]4(C)[C@H]3CC[C@]12C [Ursodesoxycholic acid, reference compound] | 2.85 |
| O=C1CCC[C@@H]2[C@H]3CCC[N+]4([O-])CCC[C@@H](CN12)[C@@H]34 (some centres unmarked) [Oxymatrine] | 1.15 |
| O=c1c(-c2ccc(O)cc2)coc2cc(O)cc(O)c12 [Genistein] | 2.73 |
| COc1ccc(-c2cc(=O)c3c(O)cc(O)cc3o2)cc1O [Diosmetin] | 3.41 |
| O=c1c(O)c(-c2ccc(O)c(O)c2)oc2cc(O)cc(O)c12 [Quercetin] | 3.38 |
| COC(=O)c1cc(OC)c2c(c1-c1c(CO)cc(OC)c3c1OCO3)OCO2 [Bicyclol, reference compound] | 2.45 |
| O=C(/C=C/c1ccc(O)c(O)c1)O[C@@H]1C[C@@](OC(=O)/C=C/c2ccc(O)c(O)c2)(C(=O)O)C[C@@H](O)[C@@H]1O [Cynarin] | 2.56 |
| C[S+](CC[C@H](N)C(=O)[O-])C[C@H]1O[C@@H](n2cnc3c(N)ncnc32)[C@H](O)[C@@H]1O (some centres unmarked) [Ademetionine, reference compound] | 2.55 |
| O=c1c(O)c(-c2ccccc2)oc2cc(O)cc(O)c12 [Galangin] | 2.81 |
| C[C@@H]1O[C@@H](OC[C@H]2O[C@@H](Oc3c(-c4ccc(O)c(O)c4)oc4cc(O)cc(O)c4c3=O)[C@H](O)[C@@H](O)[C@@H]2O)[C@H](O)[C@H](O)[C@H]1O [Rutin] | 2.86 |
| O=c1cc(-c2ccc(O)c(O)c2)oc2cc(O)cc(O)c12 [Luteolin] | 3.09 |
| Nc1cccc2c1C(=O)N(C1CCC(=O)NC1=O)C2=O (centres unmarked) [Pomalidomide, reference compound] | 1.49 |
| C[C@H](CCC(=O)NCCS(=O)(=O)O)[C@H]1CC[C@H]2[C@@H]3[C@@H](O)C[C@@H]4C[C@H](O)CC[C@]4(C)[C@H]3CC[C@]12C [Tauroursodeoxycholic acid, reference compound] | 2.77 |
| Oc1cc(O)c2cc(O)c(-c3cc(O)c(O)c(O)c3)[o+]c2c1 [Delphinidin] | 2.49 |
| O[C@H]1[C@H]2c3cc4c(cc3CN3CCC(=C[C@@H]1O)[C@H]23)OCO4 [Lycorine] | 2.26 |
| O=c1c(O[C@@H]2O[C@@H](CO)[C@H](O)[C@H]2O)c(-c2ccc(O)cc2)oc2cc(O)cc(O)c12 [Juglanin] | 2.95 |
| O=c1c(O)c(-c2ccc(O)cc2O)oc2cc(O)cc(O)c12 [Morin] | 2.86 |
| COc1cc(C2Oc3cc([C@H]4Oc5cc(O)cc(O)c5C(=O)[C@@H]4O)ccc3OC2CO)ccc1O (some centres unmarked) [Silibinin] | 3.12 |
| Oc1ccc(-c2[o+]c3cc(O)cc(O)c3cc2O)cc1 [Pelargonidin] | 2.78 |
| COc1ccc2c(c1O)-c1c(O)c(OC)cc3c1[C@H](C2)[N+](C)(C)CC3 [Magnoflorine] | 1.38 |
| COc1cc2c(c3c1c(=O)c1ccccc1n3C)C=CC(C)(C)O2 [Acronycine] | 1.43 |
| O=C(O)[C@H]1O[C@@H](Oc2cc3oc(-c4ccccc4)cc(=O)c3c(O)c2O)[C@H](O)[C@@H](O)[C@@H]1O [Baicalin] | 2.98 |
| Nc1cccc2c1CN(C1CCC(=O)NC1=O)C2=O (centres unmarked) [Lenalidomide, reference compound] | 1.43 |
| CNC(=O)c1cc(Oc2ccc(NC(=O)Nc3ccc(Cl)c(C(F)(F)F)c3)c(F)c2)ccn1 [Regorafenib, reference compound] | 2.79 |
